Data on two compounds can be found in patent US20220152523A1, “Cannabinoid Separation by Countercurrent Chromatography” (priority 2019, published 2022).

Where [1] appears, read: solvent system SS 1: sec-BuOH-1% TFA/water (1:1).
Where [2] appears, read: solvent system SS 3: Hexane-acetone-acetonitrile (5:2:3).
The mark [3] stands for this setting: solvent system SS 4: EtOAc-n-BuOH-water (2:1:3).
Setting [4] is: solvent system SS 5: EtOAc-n-BuOH-1% aq. TFA (2:1:3).
Setting [5] is: solvent system SS 6: Hexane-EtOAc-MeOH-water (6:1:6:1).
Setting [6] is: solvent system Sec-BuOH-water (1:1).

Where two headings read alike, the source gives them in different places.

Take `C=C(C)[C@@H]1CCC(C)=C[C@H]1c1c(O)cc(CCCCC)cc1O` [CBD, cannabidiol]: the “K, partition coefficient (ratio of upper phase to lower phase)” value runs as follows: under setting [1], 2.7; (solvent system SS 2: n-BuOH-1% aq. TFA (1:1)) 8.6; under setting [2], 0.99; under setting [3], 4.2; under setting [4], 16.5; under setting [5], 0.5. Besides, under setting [6], the “K, partition coefficient (ratio of upper phase to lower phase)” value is 5.5.
On to `CCCCCc1cc(O)c2c(c1)OC(C)(C)[C@@H]1CCC(C)=C[C@@H]21` [THC, Δ9-Tetrahydrocannabinol], for which the “K, partition coefficient (ratio of upper phase to lower phase)” value reads like this: under setting [1], 6.14; under setting [2], 0.56; under setting [3], 6.55; under setting [4], 10.9; under setting [5], 2.4; under setting [6], 9.4. In addition, the “K, partition coefficient (ratio of upper phase to lower phase)” value (solvent system n-BuOH-water (1:1)) came to 33.
